Results reported in ChEMBL document CHEMBL3885861, “Open TG-GATES”.

Organism: Rattus norvegicus
Test: Open TG-GATES - Regimen: Single
Type: toxicity, organism-based, Sprague-Dawley
Parameters: regimen Single, gender Male, age 6 weeks
Details: in vivo, po, route gavage; for TC / TP / gamma-GTP / ALP / ALT / AST / BUN / CRE / DBIL / GLC / IP / K / LDH / RALB / TBIL / PL: tissue Plasma; for APTT / Bas / Eos / Fbg / Ht / Lym / MCHC / MCV / Mono / PT / Plat / RBC / Ret / WBC: tissue Blood; for KIDNEY_L / KIDNEY_R / KIDNEY_TOTAL: tissue Kidney; for LIVER: tissue Liver
[1] = 0 mg/kg, 24 h, dose level Control

For `CN(C)CCCN1c2ccccc2CCc2ccccc21` [IMIPRAMINE], the TC [1] was 76 mg/dL, the TP [1] was 5.6 g/dL and the gamma-GTP [1] was 1 IU/L. The TERMINAL_BW (10 mg/kg, 3 h, dose level Low) was 203.3 g, the APTT (10 mg/kg, 3 h, dose level Low) was 16.8 s and the Bas (10 mg/kg, 3 h, dose level Low) was 0%. For the same compound, the Eos (10 mg/kg, 3 h, dose level Low) was 1.2%, the Fbg (10 mg/kg, 3 h, dose level Low) was 264.4 mg/dL and the Ht (10 mg/kg, 3 h, dose level Low) was 42.9%. For the same compound, the Lym (10 mg/kg, 3 h, dose level Low) was 78.6%, the MCHC (10 mg/kg, 3 h, dose level Low) was 31.9% and the MCV (10 mg/kg, 3 h, dose level Low) was 66.6 fL. The Mono (10 mg/kg, 3 h, dose level Low) was 2.8%, the PT (10 mg/kg, 3 h, dose level Low) was 16 s and the Plat (10 mg/kg, 3 h, dose level Low) was 108.8 x10_4/uL. It also gave an RBC (10 mg/kg, 3 h, dose level Low) of 644 x10_4/ul, a Ret (10 mg/kg, 3 h, dose level Low) of 8.6% and a WBC (10 mg/kg, 3 h, dose level Low) of 74.5 x10_2/uL. For the same compound, the KIDNEY_L (10 mg/kg, 3 h, dose level Low) was 0.9 g, the KIDNEY_R (10 mg/kg, 3 h, dose level Low) was 0.9 g and the KIDNEY_TOTAL (10 mg/kg, 3 h, dose level Low) was 1.8 g. The LIVER (10 mg/kg, 3 h, dose level Low) was 9.1 g, the ALP (10 mg/kg, 3 h, dose level Low) was 1700 IU/L and the ALT (10 mg/kg, 3 h, dose level Low) was 46.6 IU/L. The AST (10 mg/kg, 3 h, dose level Low) was 76.8 IU/L, the BUN (10 mg/kg, 3 h, dose level Low) was 8.6 mg/dL and the CRE (10 mg/kg, 3 h, dose level Low) was 0.1 mg/dL. The DBIL (10 mg/kg, 3 h, dose level Low) was 0.01 mg/dL, the GLC (10 mg/kg, 3 h, dose level Low) was 187.4 mg/dL and the IP (10 mg/kg, 3 h, dose level Low) was 10 mg/dL. The K (10 mg/kg, 3 h, dose level Low) was 4.3 meq/L, the LDH (10 mg/kg, 3 h, dose level Low) was 73 IU/L and the RALB (10 mg/kg, 3 h, dose level Low) was 2.6 g/dL. The TBIL (10 mg/kg, 3 h, dose level Low) was 0.066 mg/dL, the TC (10 mg/kg, 3 h, dose level Low) was 80.4 mg/dL and the TP (10 mg/kg, 3 h, dose level Low) was 5.5 g/dL. For the same compound, the gamma-GTP (10 mg/kg, 3 h, dose level Low) was 1.2 IU/L, the TERMINAL_BW (10 mg/kg, 6 h, dose level Low) was 199.7 g and the APTT (10 mg/kg, 6 h, dose level Low) was 16 s. The Bas (10 mg/kg, 6 h, dose level Low) was 0.2%, the Eos (10 mg/kg, 6 h, dose level Low) was 0.8% and the Fbg (10 mg/kg, 6 h, dose level Low) was 276.2 mg/dL. The Ht (10 mg/kg, 6 h, dose level Low) was 42.9%, the Lym (10 mg/kg, 6 h, dose level Low) was 75% and the MCHC (10 mg/kg, 6 h, dose level Low) was 32.3%. The MCV (10 mg/kg, 6 h, dose level Low) was 66.5 fL, the Mono (10 mg/kg, 6 h, dose level Low) was 2.2% and the PT (10 mg/kg, 6 h, dose level Low) was 15.8 s. It also gave a Plat (10 mg/kg, 6 h, dose level Low) of 108.4 x10_4/uL, an RBC (10 mg/kg, 6 h, dose level Low) of 645.6 x10_4/ul and a Ret (10 mg/kg, 6 h, dose level Low) of 8.3%. It also gave a WBC (10 mg/kg, 6 h, dose level Low) of 92.4 x10_2/uL, a KIDNEY_L (10 mg/kg, 6 h, dose level Low) of 0.9 g and a KIDNEY_R (10 mg/kg, 6 h, dose level Low) of 0.9 g. For the same compound, the KIDNEY_TOTAL (10 mg/kg, 6 h, dose level Low) was 1.9 g, the ALP (10 mg/kg, 6 h, dose level Low) was 1517 IU/L and the ALT (10 mg/kg, 6 h, dose level Low) was 54.4 IU/L. The AST (10 mg/kg, 6 h, dose level Low) was 79.4 IU/L, the BUN (10 mg/kg, 6 h, dose level Low) was 8.2 mg/dL and the CRE (10 mg/kg, 6 h, dose level Low) was 0.2 mg/dL. It also gave a GLC (10 mg/kg, 6 h, dose level Low) of 183 mg/dL, an IP (10 mg/kg, 6 h, dose level Low) of 9.6 mg/dL and a K (10 mg/kg, 6 h, dose level Low) of 4.2 meq/L. For the same compound, the LDH (10 mg/kg, 6 h, dose level Low) was 139.2 IU/L, the PL (10 mg/kg, 6 h, dose level Low) was 137.6 mg/dL and the RALB (10 mg/kg, 6 h, dose level Low) was 2.5 g/dL. For the same compound, the TBIL (10 mg/kg, 6 h, dose level Low) was 0.064 mg/dL, the TC (10 mg/kg, 6 h, dose level Low) was 74.8 mg/dL and the TP (10 mg/kg, 6 h, dose level Low) was 5.3 g/dL. It also gave a gamma-GTP (10 mg/kg, 6 h, dose level Low) of 1 IU/L, a TERMINAL_BW (10 mg/kg, 9 h, dose level Low) of 198.9 g and an APTT (10 mg/kg, 9 h, dose level Low) of 16.4 s. For the same compound, the Bas (10 mg/kg, 9 h, dose level Low) was 0.2%, the Eos (10 mg/kg, 9 h, dose level Low) was 1% and the Fbg (10 mg/kg, 9 h, dose level Low) was 294.4 mg/dL. For the same compound, the Ht (10 mg/kg, 9 h, dose level Low) was 42.3%, the Lym (10 mg/kg, 9 h, dose level Low) was 75.6% and the MCHC (10 mg/kg, 9 h, dose level Low) was 32.5%. It also gave an MCV (10 mg/kg, 9 h, dose level Low) of 64.4 fL, a Mono (10 mg/kg, 9 h, dose level Low) of 2.2% and a PT (10 mg/kg, 9 h, dose level Low) of 15.9 s. It also gave a Plat (10 mg/kg, 9 h, dose level Low) of 114.9 x10_4/uL, an RBC (10 mg/kg, 9 h, dose level Low) of 658 x10_4/ul and a Ret (10 mg/kg, 9 h, dose level Low) of 7.7%. For the same compound, the WBC (10 mg/kg, 9 h, dose level Low) was 71.4 x10_2/uL, the KIDNEY_L (10 mg/kg, 9 h, dose level Low) was 0.9 g and the KIDNEY_R (10 mg/kg, 9 h, dose level Low) was 0.9 g. For the same compound, the KIDNEY_TOTAL (10 mg/kg, 9 h, dose level Low) was 1.8 g, the LIVER (10 mg/kg, 9 h, dose level Low) was 8.2 g and the ALP (10 mg/kg, 9 h, dose level Low) was 1463.6 IU/L. It also gave an ALT (10 mg/kg, 9 h, dose level Low) of 37.6 IU/L, an AST (10 mg/kg, 9 h, dose level Low) of 66.2 IU/L and a BUN (10 mg/kg, 9 h, dose level Low) of 7.4 mg/dL. It also gave a CRE (10 mg/kg, 9 h, dose level Low) of 0.1 mg/dL, a DBIL (10 mg/kg, 9 h, dose level Low) of 0.01 mg/dL and a GLC (10 mg/kg, 9 h, dose level Low) of 181 mg/dL. The IP (10 mg/kg, 9 h, dose level Low) was 9.9 mg/dL, the K (10 mg/kg, 9 h, dose level Low) was 4.1 meq/L and the LDH (10 mg/kg, 9 h, dose level Low) was 67.6 IU/L. For the same compound, the PL (10 mg/kg, 9 h, dose level Low) was 137.4 mg/dL, the RALB (10 mg/kg, 9 h, dose level Low) was 2.6 g/dL and the TBIL (10 mg/kg, 9 h, dose level Low) was 0.066 mg/dL. For the same compound, the TC (10 mg/kg, 9 h, dose level Low) was 78.4 mg/dL, the TP (10 mg/kg, 9 h, dose level Low) was 5.5 g/dL and the gamma-GTP (10 mg/kg, 9 h, dose level Low) was 1.2 IU/L. The TERMINAL_BW (10 mg/kg, 24 h, dose level Low) was 217.3 g, the APTT (10 mg/kg, 24 h, dose level Low) was 16.2 s and the Bas (10 mg/kg, 24 h, dose level Low) was 0%. The Eos (10 mg/kg, 24 h, dose level Low) was 0.4%, the Fbg (10 mg/kg, 24 h, dose level Low) was 254 mg/dL and the Ht (10 mg/kg, 24 h, dose level Low) was 40.6%. The Lym (10 mg/kg, 24 h, dose level Low) was 81%, the MCHC (10 mg/kg, 24 h, dose level Low) was 32.3% and the MCV (10 mg/kg, 24 h, dose level Low) was 65.1 fL. The Mono (10 mg/kg, 24 h, dose level Low) was 2.4%, the PT (10 mg/kg, 24 h, dose level Low) was 16.2 s and the Plat (10 mg/kg, 24 h, dose level Low) was 104.4 x10_4/uL. For the same compound, the RBC (10 mg/kg, 24 h, dose level Low) was 625.4 x10_4/ul, the Ret (10 mg/kg, 24 h, dose level Low) was 7.4% and the WBC (10 mg/kg, 24 h, dose level Low) was 76.3 x10_2/uL. It also gave a KIDNEY_L (10 mg/kg, 24 h, dose level Low) of 0.9 g, a KIDNEY_R (10 mg/kg, 24 h, dose level Low) of 0.9 g and a KIDNEY_TOTAL (10 mg/kg, 24 h, dose level Low) of 1.8 g. The LIVER (10 mg/kg, 24 h, dose level Low) was 9.7 g, the ALP (10 mg/kg, 24 h, dose level Low) was 1443 IU/L and the ALT (10 mg/kg, 24 h, dose level Low) was 48.6 IU/L. For the same compound, the AST (10 mg/kg, 24 h, dose level Low) was 80.8 IU/L, the BUN (10 mg/kg, 24 h, dose level Low) was 15.6 mg/dL and the CRE (10 mg/kg, 24 h, dose level Low) was 0.2 mg/dL. The GLC (10 mg/kg, 24 h, dose level Low) was 187.2 mg/dL, the IP (10 mg/kg, 24 h, dose level Low) was 7.6 mg/dL and the K (10 mg/kg, 24 h, dose level Low) was 4 meq/L. It also gave an LDH (10 mg/kg, 24 h, dose level Low) of 73.2 IU/L, an RALB (10 mg/kg, 24 h, dose level Low) of 2.5 g/dL and a TBIL (10 mg/kg, 24 h, dose level Low) of 0.058 mg/dL. For the same compound, the TC (10 mg/kg, 24 h, dose level Low) was 78 mg/dL.
